According to patent publication US20220169672A1, “COMPOUNDS FOR TARGETED THERAPIES OF CASTRATION RESISTANT PROSTATE CANCER” (Purdue Research Foundation, priority 2019, published 2022):
Like-named read-outs stand apart in the source and are kept apart here.

What was measured:
[1] = Cytotoxicity in normal prostatic epithelial RWPE-1 cells; details: human
Protocol: (§1) To identify initial lead(s), we first tested all ten drugs in vitro in human prostate cancer LNCaP and CRPC C4-2 cells to see their growth inhibition effect.
(§2) The LNCaP, C4-2 & RWPE-1 cell lines were provided by Professor Timothy Ratliff (Purdue University Center for Cancer Research, USA). All these cells were and maintained at 37° C. with 5% CO2 atmosphere in a humidified incubator following American Type Culture Collection (ATCC) protocol. LNCaP cells were grown in RPMI-1640 (Gibco) supplemented with 10% FBS (Atlanta Biologics), 20 mM HEPES and 1% penicillin/streptomycin (Invitrogen). C4-2 cells were grown in 4:1 DMEM/F12-K medium (Gibco) supplemented with 10% FBS (Atlanta Biologics), 1% penicillin/streptomycin (Invitrogen), 3 mg/mL sodium bicarbonate, 5 μg/mL insulin, 1.36 ng/mL triiodothyronine, 5 μg/mL transferrin, 0.25 μg/mL biotin and 25 μg/mL adenine. For normal growth, RWPE-1 cells were maintained in Keratinocyte Serum Free Medium (K-SFM) (Invitrogen) supplemented with 0.05 mg/mL bovine pituitary extract (BPE) and 5 ng/mL epidermal growth factor (EGF). […] For experiments, cells were used from 3 to 12 passages from thawing.
(§3) The cell proliferation experiment was carried out by the ‘Cell Titer-Blue Cell Viability Assay,’ In this assay, approximately 5,000 cells/well were seeded in 100 μL growth media in poly-L-lysine coated 96-well plates. Next day, the cells were treated with additional 100 μL of various concentrations of the test compounds or DMSO-growth media as untreated control for 6 days in a humidified incubator at 37° C. and 5% CO2 atmosphere. 10 μL ‘Cell Titer-Blue Reagent’ was added directly to each well after 6 days and the plates were incubated for 3 h at 37° C. to allow cells to convert resazurin to resorufin, and the fluorescent signal was measured at 590 nm using a multiplate ELISA reader (Bio-Tek Synergy HT plate reader, Bio-Tek, Winooski, Vt.). The percentage of viable cells in a compound-treated sample was calculated by considering the absorbance of the DMSO-growth media treated sample as 100%. Data was analysed and IC50 value was calculated using GraphPad Prism Software. All experimental points were done in triplicate and experiments were repeated at least thrice.
(§4) The cell viability assay was performed using a standard methyl thiazolyldiphenyl tetrazolium bromide (MTT) assay. In this assay, approximately 5,000 cells/well were seeded in 100 μL growth media in poly-L-lysine coated 96-well plates. After 1 day of plating, the cells were treated with additional 100 μL of various concentrations of the test compounds or DMSO-growth media as untreated control for 3 days more in a humidified incubator at 37° C. and 5% CO2 atmosphere. After 3 days, the culture medium was replaced with 100 μL of MTT solution (using 1 mg/ml stock in growth media) per well and further incubated at 37° C. for 3-4 h. To dissolve the formazan crystals formed in each well by mitochondrial reductase from live cells, 100 μL DMSO was added in each well and shaked for 30 min at RT using an orbital shaker. The absorbance of each well was measured at 570 nm using a multiplate ELISA reader (Bio-Tek Synergy HT plate reader, Bio-Tek, Winooski, Vt.). The percentage of viable cells in a compound-treated sample was calculated by considering the absorbance of the DMSO-growth media treated sample as 100%. All experimental points were done in triplicate and experiments were repeated at least thrice.

C4-2 cells [2] = experiment: Cell proliferation / growth inhibition in CRPC C4-2 cells; type: cell-based, human
Protocol: as §1
We assessed anti-cancer activity of the synthetic molecules in prostate cancer cell lines as well as toxicity of the active molecules in normal human cell line.
as §2, §3

RWPE-1 cells = experiment: Cytotoxicity in normal prostatic epithelial RWPE-1 cells; details: read-out: cytotoxicity IC50; RWPE-1 normal cells
Protocol: as §1, §2, §3, §4

androgen receptor (AR) = biological target: T1, androgen receptor (AR) (Homo sapiens, UniProt P10275, T878A); experiment: Western blot of AR expression in C4-2 cell lysates; type: cell-based; details: C4-2 cells, 1 μM, 24 h, compared to vehicle and other treatments including ABI
T1 construct: we performed western blot analysis of LNCaP and C4-2 cells' lysates after treated with the indicated drugs/compounds; endogenous in cells; host or cells: C4-2
T1 sequence (P10275 whole entry T878A): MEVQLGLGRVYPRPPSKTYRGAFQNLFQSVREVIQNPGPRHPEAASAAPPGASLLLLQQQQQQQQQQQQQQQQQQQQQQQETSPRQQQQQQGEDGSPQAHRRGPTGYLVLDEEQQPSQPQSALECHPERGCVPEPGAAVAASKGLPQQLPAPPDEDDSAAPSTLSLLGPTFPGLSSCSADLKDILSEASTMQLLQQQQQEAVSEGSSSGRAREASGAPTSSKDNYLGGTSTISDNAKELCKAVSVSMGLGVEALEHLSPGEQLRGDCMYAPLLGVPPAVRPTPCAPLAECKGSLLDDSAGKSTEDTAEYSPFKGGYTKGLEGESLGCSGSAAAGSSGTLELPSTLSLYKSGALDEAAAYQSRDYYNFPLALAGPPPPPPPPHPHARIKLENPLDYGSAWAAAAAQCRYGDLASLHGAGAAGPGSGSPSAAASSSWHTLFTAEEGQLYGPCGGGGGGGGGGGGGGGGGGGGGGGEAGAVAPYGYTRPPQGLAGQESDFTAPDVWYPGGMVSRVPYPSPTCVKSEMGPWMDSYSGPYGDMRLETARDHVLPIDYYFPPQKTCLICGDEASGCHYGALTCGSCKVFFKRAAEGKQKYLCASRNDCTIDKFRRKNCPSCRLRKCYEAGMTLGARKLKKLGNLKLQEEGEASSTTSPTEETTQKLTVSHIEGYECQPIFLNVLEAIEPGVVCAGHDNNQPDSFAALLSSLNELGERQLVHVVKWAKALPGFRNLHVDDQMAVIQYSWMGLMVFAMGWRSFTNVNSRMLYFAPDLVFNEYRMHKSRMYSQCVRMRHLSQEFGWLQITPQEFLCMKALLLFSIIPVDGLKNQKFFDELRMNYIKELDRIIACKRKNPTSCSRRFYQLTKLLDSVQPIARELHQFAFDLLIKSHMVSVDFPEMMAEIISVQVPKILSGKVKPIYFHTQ
Protocol: First, 0.5×10^6 cells/well were seeded in 6-well plate coated with 0.01% poly-L-lysine. Next day, cells were treated with 1 μM concentrations of drugs/compounds or 0.01% DMSO-growth media as vehicle control and the treatment was continued for 24 h in a humidified incubator at 37° C. and 5% CO2 atmosphere. Following treatment, cells were washed with cold PBS and lysed in TBSN buffer (20 mmol/L Tris, pH 8.0, 150 mmol/L NaCl, 1.5 mmol/L EDTA, 5 mmol/L EGTA, 0.5% Nonidet P-40, and 0.5 mmol/L Na3VO4) supplemented with 1× protease inhibitor cocktail tablets to obtain cellular lysates. The protein concentration of the whole cell lysate was quantified by Pierce BCA Protein Assay (Thermo Scientific). The lysate was run on 10% SDS-PAGE gel (40 μg of protein per lane) and β-actin (clone 8H10D10, Cell Signaling Technology) was used as a loading control. Proteins were transferred onto PVDF membrane and the nonspecific binding was blocked using 5% milk in PBS-T (0.05% Tween-20 in PBS buffer) for 1 h. […] Protein expression was normalized to β-actin and densitometry was calculated using ImageJ Software.

LNCaP cells [3] = experiment: In vitro scratch assay, LNCaP cell migration; type: cell-based, human; details: no treatment 4.8 μm/h
Text: (§5) We evaluated effects of the active leads on the cancer cell migration—as most often, prostate cancer cell metastasizes to bone leading to the advanced prostate cancer. We performed the well developed in vitro scratch assay to measure both LNCaP and C4-2 cell's migration in presence of the treatments of all these active synthetic compounds. We calculated the migration speed based on the distance travelled/h. The LNCaP cells with no treatment migrated at a speed of 4.8 μm/h, whereas, treatment with 1, 2, 3 and 4 led to a slower rate (2.2, 3.5, 2.6 and 3.7 μm/h respectively) of migration; almost half of the migration speed as compared to that of the non-treated cells. The C4-2 cells with no treatment migrated at a speed of 6.5 μm/h whereas, treatment with 1, 2, 3 and 4 led to a slower rate (2.4, 3.3, 3.9 and 2.5 μm/h respectively) of migration (FIGS. 3D-3E). Since migration is the first step towards invasion and metastasis of cancer cells 1, 2, 3 and 4 might as well interfere with the metastasis process and lead 1 was found as the most efficient among these based on the migration speed rate in both the cells.

C4-2 cells [4] = experiment: In vitro scratch assay, C4-2 cell migration; type: cell-based, human; details: no treatment 6.5 μm/h
Text: as §5

[5] = mouse liver microsomes, 3 μM, 37° C., 60 min
Protocol: In this assay, the lead compounds were incubated with the respective microsomes at 37° C. and the incubated mixture was analyzed by LC-MS/MS to quantify the remaining parent molecule.
All the test compounds were incubated in duplicate at 3 μM concentration with mouse and human liver microsomes at 37° C. The reaction mixture contained microsomal enzyme in 100 mM potassium phosphate buffer of pH 7.4. Warfarin and verapamil were used as negative and positive control in this assay. After 0 min and 60 min incubation, aliquots were removed from each experimental and control reaction and mixed with an equal volume of ice-cold Stop Solution (0.3% acetic acid in acetonitrile). The samples were centrifuged to remove precipitated protein, and the supernatants were analyzed by LC-MS/MS to quantify the remaining parent molecule. Data represents % remaining as compared to the time zero concentration as 100%.

LuCaP35CR xenografts = experiment: LuCaP35CR patient derived xenograft (PDX) mice model
LNCaP cells [6] = experiment: Cell proliferation / growth inhibition in LNCaP cells; type: cell-based; details: Homo sapiens, read-out: growth inhibition IC50
Protocol: All these cells were and maintained at 37° C. with 5% CO2 atmosphere in a humidified incubator following American Type Culture Collection (ATCC) protocol. LNCaP cells were grown in RPMI-1640 (Gibco) supplemented with 10% FBS (Atlanta Biologics), 20 mM HEPES and 1% penicillin/streptomycin (Invitrogen). […] For experiments, cells were used from 3 to 12 passages from thawing.

[7] = C4-2 cells, read-out: growth inhibition / proliferation IC50
[8] = Homo sapiens, C4-2, read-out: growth inhibition / proliferation IC50
[9] = Homo sapiens, C4-2 cells, read-out: growth inhibition / proliferation IC50

| SMILES | IC50 (C4-2 cells [2]; [7]) | IC50 (RWPE-1 cells) | migration speed (LNCaP cells [3]) | migration speed (C4-2 cells [4]) | IC50 [1] | IC50 (C4-2 cells [2]; [9]) | other results |
| --- | --- | --- | --- | --- | --- | --- | --- |
| C[C@]12CC[C@H](O)CC1=CC[C@@H]1[C@@H]2CC[C@]2(C)C(c3cccnc3)=CC[C@@H]12 [ABI, abiraterone, reference compound] | – | – | – | – | – | – | IC50 ([1]; RWPE-1 normal prostatic epithelial cells): 7200 nM |
| C#C[C@@]1(O)CC[C@@H]2[C@H]3[C@@H](CC[C@@]21C)[C@H]1CCC(=O)C=C1C[C@@H]3C [Compound 1] | 0.72 nM | 54600 nM | 2.2 μm/h | 2.4 μm/h | – | – | proliferation IC50 compared to ABI, in words (C4-2 cells [2]; C4-2 cells): much less in C4-2 cells than that of ABI; AR degradation (western blot), in words (androgen receptor (AR)): degraded AR efficiently; metabolic stability compared to ABI [5]: more stable than the current CRPC drug ABI; average body weight (LuCaP35CR xenografts; LuCaP35CR mice, over 16 days): did not change the average body weight; tumor growth (LuCaP35CR xenografts; castrate mice bearing LuCaP35CR xenografts, 10 mg/kg, compared to vehicle): suppressed the tumor growth rapidly |
| C#C[C@]1(O)CC[C@H]2[C@@H]3CCC4=CC(=O)CC[C@]4(C)[C@H]3CC[C@@]21C [Compound 2, Ethisterone] | – | – | 3.5 μm/h | 3.3 μm/h | 18300 nM | – | IC50 (C4-2 cells [2]; [8]): 11 nM |
| C#C[C@@]1(O)CC[C@@H]2[C@H]3[C@@H](CC[C@@]21C)[C@H]1CCC(=NO)C=C1C[C@H]3C [Compound 3] | – | – | 2.6 μm/h | 3.9 μm/h | – | < 100 nM | – |
| C#C[C@]1(O)CC[C@H]2[C@@H]3CCC4=CC(=NO)CC[C@@H]4[C@H]3CC[C@@]21C [Compound 4] | – | – | 3.7 μm/h | 2.5 μm/h | – | – | – |
| CC[C@@]1(O)CC[C@@H]2[C@H]3[C@@H](CC[C@@]21C)[C@H]1CCC(=O)CC1C[C@@H]3C (some centres unmarked) [Compound 13] | 3.5 nM | 17800 nM | – | – | – | – | – |
| C[C@H]1CC2=CC(=O)CC[C@@H]2[C@@H]2CC[C@@]3(C)[C@H](CC[C@]3(O)C#Cc3ccccc3N)[C@@H]21 [Compound 15] | 4.1 nM | 13500 nM | – | – | – | – | – |
| C#C[C@]1(O)CC[C@H]2[C@@H]3CCC4=CC(=O)CC[C@@H]4[C@H]3CC[C@@]21CC [LEV, levonorgestrel, reference compound] | – | – | – | – | 59700 nM | 41.8 nM | IC50 (LNCaP cells [6]; LNCaP cells): 181 nM |
| C#C[C@]1(O)CC[C@H]2[C@@H]3CCC4=CC(=O)CC[C@@H]4[C@H]3CC[C@@]21C [NOR, norethisterone, reference compound] | – | – | – | – | 86300 nM | 7.04 nM | IC50 (LNCaP cells [6]; LNCaP cells): 32.5 nM |
| C#C[C@]1(O)CC[C@H]2[C@@H]3[C@H](C)CC4=C(CCC(=O)C4)[C@H]3CC[C@@]21C [TIB, tibolone, reference compound] | – | – | – | – | 23300 nM | – | IC50 (LNCaP cells [6]; LNCaP): 24.9 nM; IC50 (C4-2 cells [2]; [8]): 3.12 nM |
